{"source": "patent US11272841B2", "about": "“Indicator fluids, systems, and methods for assessing movement of substances within, to or from a cerebrospinal fluid, brain or spinal cord compartment of a cranio-spinal cavity of a human” (BRAINWIDESOLUTIONS AS, priority 2017, dated 2022)", "test": "Percentage change in normalized T1 signal unit ratios in FreeSurfer-segmented brain regions after intrathecal gadobutrol (Table 5, FIG. 14e-h)", "assay_type": "in vivo, human", "settings": "for Percentage change in signal unit ratios: mean ± SD", "excerpt": "The alignment of longitudinal data is illustrated in FIG. 14c-d. When repeated MRIs are obtained proper alignment is necessary for use of segmentation tools. Otherwise, it is not possible to examine how signals within defined regions of interest change over time. […] The co-registered MRI 1409 show no good co-registration. In FIG. 14d is shown coronal T1 MRIs at Time 1 1410 and Time 2 1411, including co-registered MRIs 1412. In this latter case proper alignment is obtained. Methodology for alignment is established from prior art, as is methodology for segmentation of MRI acquisitions. The inventors have used the FreeSurfer software (version 6.0) (http://surfer.nmr.mgh.harvard.edu/) for segmentation and parcellation, and to measure how an indicator fluid present within CSF (the MRI contrast agent gadobutrol) changed the T1 SU. In this case, the MRI contrast agent was used as CSF tracer. The FreeSurfer software utilizes automated Talairach transformation 1402, and allows for segmentation of a wide range of brain regions, including the subcortical white matter and deep gray matter volumetric structures (including hippocampus, amygdala, caudate, putamen, ventricles).\nUsing prior art methodology for alignment and segmentation, changes in indication signals over time may be determined. This is further illustrated in Table 5. The results are from 8 individuals who underwent MRI for tentative idiopathic intracranial hypotension due to CSF leakage. A CSF leakage was identified in 3/8 individuals. Otherwise the individuals were healthy. Table 5 presents the percentage change in normalized T1 signals, i.e. indication signal ratios, over time, as compared to T1 weighted MRI without CSF tracer present. […] The MRI signal increase was significant at all main locations (Table 5). The determination of signal unit ratios was described with reference to FIG. 7.\nEach image acquisition lasted 6 minutes and 29 seconds.\nThe inventors determined percentage change in signal units when indicator fluid was present in the CSF compartment, as compared to a point of time without any indicator fluid within the CSF compartment. Four different regions were examined, segmented using FreeSurfer, namely CSF (FIG. 14e), entorhinal cortex (FIG. 14f), hippocampus (FIG. 14g) and Limbic structures (FIG. 14h). The two cohorts of individuals included reference subjects who were close to healthy and a population with a subtype of dementia. For the CSF compartment (FIG. 14e) is shown percentage change in signal unit ratios 1413 versus time 1414, including trend plots for reference subjects 1415 and individuals with dementia 1416. […] Peak for reference subjects occurred after 6-9 hours while after 24 hours for the dementia population.", "data": [{"smiles": "O=C([O-])CN1CCN(CC(=O)[O-])CCN([C@H](CO)[C@H](O)CO)CCN(CC(=O)[O-])CC1.[Gd+3]", "note": "(racemic) [gadobutrol]", "values": [{"measurement": "Percentage change in signal unit ratios", "setting": "Basal ganglia, 1.5-2 hours", "result": "−3 ± 8", "unit": "%"}, {"measurement": "Percentage change in signal unit ratios", "setting": "Basal ganglia, 2-4 hours", "result": "−6 ± 14", "unit": "%"}, {"measurement": "Percentage change in signal unit ratios", "setting": "Basal ganglia, 4-6 hours", "result": "1 ± 25", "unit": "%"}, {"measurement": "Percentage change in signal unit ratios", "setting": "Basal ganglia, 6-9 hours", "result": "−4 ± 14", "unit": "%"}, {"measurement": "Percentage change in signal unit ratios", "setting": "Basal ganglia, 24 hours", "result": "4 ± 18", "unit": "%"}, {"measurement": "Time of peak percentage change in signal unit ratios", "setting": "CSF (FIG. 14e), reference subjects and dementia individuals", "result": "6 to 9", "unit": "h"}, {"measurement": "Percentage change in signal unit ratios", "setting": "CSF [24], 1.5-2 hours after intrathecal gadobutrol, 8 individuals", "result": "16 ± 20", "unit": "%"}, {"measurement": "Percentage change in signal unit ratios", "setting": "CSF [24], 2-4 hours", "result": "101 ± 116", "unit": "%"}, {"measurement": "Percentage change in signal unit ratios", "setting": "CSF [24], 4-6 hours", "result": "354 ± 309", "unit": "%"}, {"measurement": "Percentage change in signal unit ratios", "setting": "CSF [24], 6-9 hours", "result": "500 ± 421", "unit": "%"}, {"measurement": "Percentage change in signal unit ratios", "setting": "CSF [24], 24 hours", "result": "157 ± 164", "unit": "%"}, {"measurement": "Percentage change in signal unit ratios", "setting": "Cerebellar cortex, 1.5-2 hours", "result": "6 ± 6", "unit": "%"}, {"measurement": "Percentage change in signal unit ratios", "setting": "Cerebellar cortex, 2-4 hours", "result": "12 ± 27", "unit": "%"}, {"measurement": "Percentage change in signal unit ratios", "setting": "Cerebellar cortex, 4-6 hours", "result": "45 ± 58", "unit": "%"}, {"measurement": "Percentage change in signal unit ratios", "setting": "Cerebellar cortex, 6-9 hours", "result": "67 ± 80", "unit": "%"}, {"measurement": "Percentage change in signal unit ratios", "setting": "Cerebellar cortex, 24 hours", "result": "53 ± 47", "unit": "%"}, {"measurement": "Percentage change in signal unit ratios", "setting": "Cerebellar white matter, 1.5-2 hours", "result": "1 ± 9", "unit": "%"}, {"measurement": "Percentage change in signal unit ratios", "setting": "Cerebellar white matter, 2-4 hours", "result": "−3 ± 14", "unit": "%"}, {"measurement": "Percentage change in signal unit ratios", "setting": "Cerebellar white matter, 4-6 hours", "result": "3 ± 23", "unit": "%"}, {"measurement": "Percentage change in signal unit ratios", "setting": "Cerebellar white matter, 6-9 hours", "result": "2 ± 19", "unit": "%"}, {"measurement": "Percentage change in signal unit ratios", "setting": "Cerebellar white matter, 24 hours", "result": "15 ± 23", "unit": "%"}, {"measurement": "Percentage change in signal unit ratios", "setting": "Cerebral cortex (grey matter), 1.5-2 hours", "result": "−3 ± 7", "unit": "%"}, {"measurement": "Percentage change in signal unit ratios", "setting": "Cerebral cortex (grey matter), 2-4 hours", "result": "−1 ± 15", "unit": "%"}, {"measurement": "Percentage change in signal unit ratios", "setting": "Cerebral cortex (grey matter), 4-6 hours", "result": "26 ± 44", "unit": "%"}, {"measurement": "Percentage change in signal unit ratios", "setting": "Cerebral cortex (grey matter), 6-9 hours", "result": "44 ± 50", "unit": "%"}, {"measurement": "Percentage change in signal unit ratios", "setting": "Cerebral cortex (grey matter), 24 hours", "result": "52 ± 54", "unit": "%"}, {"measurement": "Percentage change in signal unit ratios", "setting": "Cerebral white matter, 1.5-2 hours", "result": "−3 ± 9", "unit": "%"}, {"measurement": "Percentage change in signal unit ratios", "setting": "Cerebral white matter, 2-4 hours", "result": "−1 ± 18", "unit": "%"}, {"measurement": "Percentage change in signal unit ratios", "setting": "Cerebral white matter, 4-6 hours", "result": "26 ± 40", "unit": "%"}, {"measurement": "Percentage change in signal unit ratios", "setting": "Cerebral white matter, 6-9 hours", "result": "34 ± 46", "unit": "%"}, {"measurement": "Percentage change in signal unit ratios", "setting": "Cerebral white matter, 24 hours", "result": "27 ± 33", "unit": "%"}, {"measurement": "Percentage change in signal unit ratios", "setting": "Hippocampus, amygdala, accumbens, entorhinal, 1.5-2 hours", "result": "−2 ± 7", "unit": "%"}, {"measurement": "Percentage change in signal unit ratios", "setting": "Hippocampus, amygdala, accumbens, entorhinal, 2-4 hours", "result": "−1 ± 15", "unit": "%"}, {"measurement": "Percentage change in signal unit ratios", "setting": "Hippocampus, amygdala, accumbens, entorhinal, 4-6 hours", "result": "28 ± 38", "unit": "%"}, {"measurement": "Percentage change in signal unit ratios", "setting": "Hippocampus, amygdala, accumbens, entorhinal, 6-9 hours", "result": "43 ± 43", "unit": "%"}, {"measurement": "Percentage change in signal unit ratios", "setting": "Hippocampus, amygdala, accumbens, entorhinal, 24 hours", "result": "42 ± 39", "unit": "%"}, {"measurement": "Percentage change in signal unit ratios", "setting": "Thalamus, 1.5-2 hours", "result": "−2 ± 8", "unit": "%"}, {"measurement": "Percentage change in signal unit ratios", "setting": "Thalamus, 2-4 hours", "result": "−4 ± 15", "unit": "%"}, {"measurement": "Percentage change in signal unit ratios", "setting": "Thalamus, 4-6 hours", "result": "5 ± 26", "unit": "%"}, {"measurement": "Percentage change in signal unit ratios", "setting": "Thalamus, 6-9 hours", "result": "2 ± 18", "unit": "%"}, {"measurement": "Percentage change in signal unit ratios", "setting": "Thalamus, 24 hours", "result": "11 ± 21", "unit": "%"}, {"measurement": "Time of peak percentage change in signal unit ratios", "setting": "entorhinal cortex, dementia population", "result": 24, "unit": "h"}, {"measurement": "Time of peak percentage change in signal unit ratios", "setting": "entorhinal cortex, reference subjects", "result": "6 to 9", "unit": "h"}, {"measurement": "Time of peak percentage change in signal unit ratios", "setting": "hippocampus, dementia cohort", "result": 24, "unit": "h"}, {"measurement": "Time of peak percentage change in signal unit ratios", "setting": "hippocampus, reference subjects", "result": "6 to 9", "unit": "h"}, {"measurement": "Time of peak percentage change in signal unit ratios", "setting": "limbic structures, dementia cohort", "result": 24, "unit": "h"}, {"measurement": "Time of peak percentage change in signal unit ratios", "setting": "limbic structures, reference subjects", "result": "6 to 9", "unit": "h"}]}]}
